One data set concerns the target GNA12. As to conditions: ASO.
A further data set deals with GNAS. As to conditions: ASO.

Data on 85 sequences can be found in the OligoGym collection.

These antisense oligonucleotides have a phosphorothioate backbone; sugars and methylation of C are not fully specified.
Note: test concentration or dose not given here.

In the data set with GNA12, AAGATGTTCATGGACTCC displayed a remaining target (mRNA or protein) (fraction of control) of 0.33.

As to AAGTCATGCTCCACAATT, the remaining target (mRNA or protein) (fraction of control) with GNA12 stood at 0.64.

AAGTTGTCCAGGAAGTAC displayed a remaining target (mRNA or protein) (fraction of control) in the data set with GNA12 of 0.44.

In the data set with GNA12, AATTCAGCTGGCCGATCC returned a remaining target (mRNA or protein) (fraction of control) of 0.59.

Turning to ACAAGAACCCTTGAGCCC, the remaining target (mRNA or protein) (fraction of control) with GNA12 is 0.74.

As for ACGTGGACTTGCCGCTCT, in the data set with GNA12, the remaining target (mRNA or protein) (fraction of control) stood at 0.32.

ACTAGGAAAGTAATTCAG showed a remaining target (mRNA or protein) (fraction of control) with GNA12 of 0.47.

Consider ACTCGCTTCTCCGGCTGA, for which, in the data set with GNA12, the remaining target (mRNA or protein) (fraction of control) is 0.85.

For ACTGCCAAGGAATGCCAA, the remaining target (mRNA or protein) (fraction of control) with GNA12 is at least 1.

Sequence AGCAGGCAGCGGCTGAGG yielded a remaining target (mRNA or protein) (fraction of control) with GNA12 of 0.93.

In the data set with GNA12, AGCATGATGTCCTTCAGG returned a remaining target (mRNA or protein) (fraction of control) of 0.29.

In the data set with GNA12, AGCCCTTGAGGATGTTGT returned a remaining target (mRNA or protein) (fraction of control) of 0.94.

In the case of AGGATGTTGTCGAAGATG, in the data set with GNA12, the remaining target (mRNA or protein) (fraction of control) stood at 0.77.

In turn, AGTGCTTCTTGATGCTCA showed a remaining target (mRNA or protein) (fraction of control) in the data set with GNA12 of 0.62.

Sequence ATGATGGAGACGTTGAAG came in with a remaining target (mRNA or protein) (fraction of control) in the data set with GNA12 of at least 1.

In the data set with GNA12, CACAATTCCCTTGGTGGC came in with a remaining target (mRNA or protein) (fraction of control) of at least 1.

Take CACATCCACCATCTTAAA: in the data set with GNA12, the remaining target (mRNA or protein) (fraction of control) is at least 1.

For the sequence CACCAGGAGGTCCATCTT, the remaining target (mRNA or protein) (fraction of control) with GNA12 was determined as 0.75.

Consider CAGAATCCCTCCAGAGTG, for which the remaining target (mRNA or protein) (fraction of control) with GNA12 is 0.37.

For CAGCCGGTTGGTGCGCCT, the remaining target (mRNA or protein) (fraction of control) with GNA12 came out at 0.25.

In the data set with GNA12, CATGAACAGGATGGACGT displayed a remaining target (mRNA or protein) (fraction of control) of 0.5.

Consider CATGGAACACGAAGCGGA, for which the remaining target (mRNA or protein) (fraction of control) with GNA12 came out at 0.57.

Consider CCAGCAGCGCGTCGATGT, for which the remaining target (mRNA or protein) (fraction of control) with GNA12 turned out to be 0.29.

Sequence CCATGCTTCTCATTTTCA displayed a remaining target (mRNA or protein) (fraction of control) with GNA12 of 0.49.

In the data set with GNA12, CCCCGCCTTGTTCTCGAA came in with a remaining target (mRNA or protein) (fraction of control) of 0.85.

In turn, CCCTGATGCCAGAATCCC returned a remaining target (mRNA or protein) (fraction of control) in the data set with GNA12 of 0.39.

In the data set with GNA12, CCGATCCGGTCCAAGTTG yielded a remaining target (mRNA or protein) (fraction of control) of 0.38.

For CCGCTGGCCGCCCACATC, the remaining target (mRNA or protein) (fraction of control) with GNA12 was 0.47.

The sequence CCGTCGAAGCACTGGAAC gave a remaining target (mRNA or protein) (fraction of control) in the data set with GNA12 of 0.8.

Consider CCTGAAGTCCGGGAAGTG, for which, in the data set with GNA12, the remaining target (mRNA or protein) (fraction of control) came out at 0.85.

In turn, CCTGTCGAAGCACTGGAC yielded a remaining target (mRNA or protein) (fraction of control) in the data set with GNA12 of 0.34.

For CGAAGGCCATCAGGAACA, in the data set with GNA12, the remaining target (mRNA or protein) (fraction of control) was at least 1.

As for CTCAGGGCCGGGACGTAC, in the data set with GNA12, the remaining target (mRNA or protein) (fraction of control) was 0.77.

For the sequence CTCCAGCAGCGCCTTCTG, the remaining target (mRNA or protein) (fraction of control) with GNA12 is at least 1.

Sequence CTCGCGGCCGTGGATGAT returned a remaining target (mRNA or protein) (fraction of control) with GNA12 of 0.99.

In the data set with GNA12, CTGAGGGTCCGCACCACC displayed a remaining target (mRNA or protein) (fraction of control) of at least 1.

Turning to CTGGAACCACTTCTGGCG, the remaining target (mRNA or protein) (fraction of control) in the data set with GNA12 was 0.89.

In the data set with GNA12, CTGGAGGAGACCATGAAC registered a remaining target (mRNA or protein) (fraction of control) of at least 1.

On to CTTATCTCGTGCATCAAC, for which the remaining target (mRNA or protein) (fraction of control) with GNA12 is 0.51.

Sequence CTTGGTGGCTTTCCTAGC had a remaining target (mRNA or protein) (fraction of control) with GNA12 of at least 1.

GAAAGCCTCCCTGATGCC showed a remaining target (mRNA or protein) (fraction of control) in the data set with GNA12 of 0.38.

The sequence GAAGCGGACGTTCTCGGT had a remaining target (mRNA or protein) (fraction of control) in the data set with GNA12 of at least 1.

For the sequence GATATCTTGCTTACTAGG, in the data set with GNA12, the remaining target (mRNA or protein) (fraction of control) was 0.37.

Sequence GCAGGATCTTCACCAGGC registered a remaining target (mRNA or protein) (fraction of control) in the data set with GNA12 of 0.93.

As to GCGCATCTGCTTGAGGAA, the remaining target (mRNA or protein) (fraction of control) with GNA12 came out at 0.82.

Sequence GCGCCTTCTGGTCGAACT returned a remaining target (mRNA or protein) (fraction of control) in the data set with GNA12 of 0.72.

The sequence GCTCACGGTCTTCACCTT had a remaining target (mRNA or protein) (fraction of control) with GNA12 of at least 1.

GCTTGAGGAACGTGGACT showed a remaining target (mRNA or protein) (fraction of control) with GNA12 of 0.31.

As for GGAAGAGAATGATGGAGA, the remaining target (mRNA or protein) (fraction of control) with GNA12 is at least 1.

For GGAAGTACTTCACCGACT, the remaining target (mRNA or protein) (fraction of control) with GNA12 was at least 1.

Take GGACCTGGTCGTACTCGC: in the data set with GNA12, the remaining target (mRNA or protein) (fraction of control) worked out at 0.42.

Sequence GGATGATGCGCATCTGCT came in with a remaining target (mRNA or protein) (fraction of control) in the data set with GNA12 of at least 1.

Sequence GGCAGCGGCTGAGGGTCC came in with a remaining target (mRNA or protein) (fraction of control) with GNA12 of 0.68.

In turn, GGGACGTACAGCTGGAAG displayed a remaining target (mRNA or protein) (fraction of control) with GNA12 of 0.53.

For the sequence GGTGCGCCTGTCCTCCAT, in the data set with GNA12, the remaining target (mRNA or protein) (fraction of control) came out at 0.33.

On to GGTGGAAGAGTGGCTTGC, for which the remaining target (mRNA or protein) (fraction of control) with GNA12 was 0.65.

GGTTCTCCTGCAGGATGG displayed a remaining target (mRNA or protein) (fraction of control) with GNA12 of 0.93.

The sequence GTCCATCTTGTTGAGGAA returned a remaining target (mRNA or protein) (fraction of control) in the data set with GNA12 of 0.68.

Sequence GTCGATGTCGCGGCTACG yielded a remaining target (mRNA or protein) (fraction of control) with GNA12 of at least 1.

On to GTCGTACTCGCTGGAGGA, for which the remaining target (mRNA or protein) (fraction of control) with GNA12 was determined as 0.39.

GTGCATCAACAAGAACCC came in with a remaining target (mRNA or protein) (fraction of control) with GNA12 of 0.89.

GTGCGCTCAGGGCCGGGA: the remaining target (mRNA or protein) (fraction of control) in the data set with GNA12 stood at 0.72.

In the data set with GNA12, GTGGACTTGCCGCTCTCG displayed a remaining target (mRNA or protein) (fraction of control) of at least 1.

In the data set with GNAS, TGTTTGCTGCTGCTGTTTTA showed a remaining target (mRNA or protein) (fraction of control) of 0.96.

TTACTGAAAGTGAGAGGGAA: the remaining target (mRNA or protein) (fraction of control) in the data set with GNAS was at least 1.

As to TTATTTCATTTGTTTCTTTT, the remaining target (mRNA or protein) (fraction of control) with GNAS came out at 0.64.

As to TTATTTCATTTTATTTGTTT, in the data set with GNAS, the remaining target (mRNA or protein) (fraction of control) turned out to be 0.92.

In the case of TTCATTTGTTTCTTTTATTT, the remaining target (mRNA or protein) (fraction of control) in the data set with GNAS is at least 1.

In the data set with GNAS, TTCATTTTATTTGTTTGCTG returned a remaining target (mRNA or protein) (fraction of control) of 0.79.

On to TTCTTTTATTTCATTTTATT, for which the remaining target (mRNA or protein) (fraction of control) with GNAS is at least 1.

For the sequence TTGCCTTCTCACTGTCTCCA, the remaining target (mRNA or protein) (fraction of control) with GNAS was 0.56.

The sequence TTGCTGCTGCTGTTTTATTT came in with a remaining target (mRNA or protein) (fraction of control) with GNAS of at least 1.

Take TTGTTTCTTTTATTTCATTT: the remaining target (mRNA or protein) (fraction of control) with GNAS is at least 1.

In turn, TTGTTTGCTGCTGCTGTTTT showed a remaining target (mRNA or protein) (fraction of control) with GNAS of 0.45.

For the sequence TTTATTTCATTTGTTTCTTT, in the data set with GNAS, the remaining target (mRNA or protein) (fraction of control) was found to be 0.93.

In the case of TTTATTTCATTTTATTTGTT, the remaining target (mRNA or protein) (fraction of control) in the data set with GNAS is at least 1.

On to TTTCATTTGTTTCTTTTATT, for which the remaining target (mRNA or protein) (fraction of control) in the data set with GNAS was at least 1.

TTTCATTTTATTTGTTTGCT returned a remaining target (mRNA or protein) (fraction of control) in the data set with GNAS of at least 1.

The sequence TTTCTTTTATTTCATTTTAT returned a remaining target (mRNA or protein) (fraction of control) with GNAS of at least 1.

Take TTTGCTGCTGCTGTTTTATT: the remaining target (mRNA or protein) (fraction of control) with GNAS is 0.66.

TTTGGAACATCTAAGCAAGC returned a remaining target (mRNA or protein) (fraction of control) with GNAS of 0.97.

TTTGTTTCTTTTATTTCATT: the remaining target (mRNA or protein) (fraction of control) in the data set with GNAS worked out at 0.83.

TTTGTTTGCTGCTGCTGTTT registered a remaining target (mRNA or protein) (fraction of control) with GNAS of 0.96.

TTTTACTGAAAGTGAGAGGG yielded a remaining target (mRNA or protein) (fraction of control) with GNAS of 0.9.

TTTTATTTCATTTTATTTGT came in with a remaining target (mRNA or protein) (fraction of control) with GNAS of 0.91.
